The compounds below were run against T1, human glucagon receptor (Homo sapiens, UniProt P47871) (assay: Glucagon Binding Assay (III)). Conditions: BHK cell membranes, WGA SPA beads, 125I-glucagon; read-out: Glu Bd Assay (III) IC50.
T1 construct: expressed in transfected cells; host or cells: BHK (baby hamster kidney) cells
In short: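 Membranes from BHK cells transfected with the human receptor, prepared at 4 °C, were used in a WGA-bead scintillation proximity binding format. Plates were shaken for 4 hours, left to settle 8–48 hours and then counted. Non-specific binding was defined with 500 nM glucagon.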

T1 sequence (P47871 26-477): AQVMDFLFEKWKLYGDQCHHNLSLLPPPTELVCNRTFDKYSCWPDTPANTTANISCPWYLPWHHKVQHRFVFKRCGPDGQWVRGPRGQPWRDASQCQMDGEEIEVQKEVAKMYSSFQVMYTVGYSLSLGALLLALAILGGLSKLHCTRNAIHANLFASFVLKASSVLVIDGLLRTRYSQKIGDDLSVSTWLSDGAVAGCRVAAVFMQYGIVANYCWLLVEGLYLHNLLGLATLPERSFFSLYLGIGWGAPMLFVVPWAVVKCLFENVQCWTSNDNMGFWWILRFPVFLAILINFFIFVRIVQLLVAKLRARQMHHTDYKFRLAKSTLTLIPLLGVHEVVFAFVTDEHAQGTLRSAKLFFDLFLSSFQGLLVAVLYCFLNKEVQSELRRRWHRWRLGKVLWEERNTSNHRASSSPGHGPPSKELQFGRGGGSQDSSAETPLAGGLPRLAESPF

Compound | IC50 [nM]
CC(C)N1C(=O)c2ccc(NC(=O)N(Cc3ccc(C(=O)Nc4nn[nH]n4)cc3)C3CCC(C(C)(C)C)CC3)cc2C1=O (stereo not drawn) [Example 629, 4-[1-(4-tert-Butylcyclohexyl)-3-(N′-isopropylphthalimid-5-yl)ureidomethyl]-N-(2H-tetrazol-5-yl)benzamide] | 45
CC(C)(C)c1ccc(N(Cc2ccc(C(=O)Nc3nn[nH]n3)cc2)C(=O)Oc2cc(C(F)(F)F)cc(C(F)(F)F)c2)cc1 [Example 406] | 751
O=C(Nc1nn[nH]n1)c1ccc(CN(C(=O)NCc2ccccc2OC(F)(F)F)c2ccc(C3CCCCC3)cc2)cc1 [Example 348, 4-[1-(4-Cyclohexylphenyl)-3-(2-trifluoromethoxybenzyl)ureidomethyl]-N-(2H-tetrazol-5-yl)benzamide] | 73
O=C(Nc1nn[nH]n1)c1ccc(CN(C(=O)Nc2cccc(SC(F)(F)F)c2)c2ccc(C3CCCCC3)cc2)cc1 [Example 278, 4-[1-(4-Cyclohexylphenyl)-3-(3-trifluoromethylsulfanylphenyl)ureidomethyl]-N-(2H-tetrazol-5-yl)benzamide] | 88
O=C(Nc1nn[nH]n1)c1ccc(CN(C(=O)NCc2cc(Cl)cc(Cl)c2)c2ccc(C3CCCCC3)cc2)cc1 [Example 397, 4-[1-(4-Cyclohexylphenyl)-3-(3,5-dichlorobenzyl)ureidomethyl]-N-(2H-tetrazol-5-yl)benzamide] | 120
CC(=O)c1ccc(NC(=O)N(Cc2ccc(C(=O)NCCC(=O)O)cc2)C2CCC(C(C)(C)C)CC2)cc1 (stereo not drawn) [Example 32, 3-{4-[1-(4-tert-Butylcyclohexyl)-3-(4-acetylphenyl)ureidomethyl]benzoyl}aminopropionic acid] | 1680
CCCCOC(=O)c1ccc(NC(=O)N(Cc2ccc(C(=O)NCCC(=O)O)cc2)CC(C)c2ccccc2)cc1 (stereo not drawn) [Example 49, 4-[3-[4-(2-Carboxyethylcarbamoyl)benzyl]-3-(2-phenylpropyl)ureido]benzoic acid butyl ester] | 1320
O=C(Nc1nn[nH]n1)c1ccc(CN(C(=O)CCOc2ccccc2)c2ccc(C3CCCCC3)cc2)cc1 [Example 533, 4-{[(4-Cyclohexylphenyl)-(3-phenoxypropionyl)amino]methyl}-N-(2H-tetrazol-5-yl)benzamide] | 1800
CC(C)(C)C1CCC(N(Cc2ccc(C(=O)Nc3nn[nH]n3)cc2)C(=O)c2cccc(C(F)(F)F)c2)CC1 (stereo not drawn) [Example 514, 4-{[(4-tert-Butylcyclohexyl)-(3-trifluoromethylbenzoyl)amino]methyl}-N-(2H-tetrazol-5-yl)benzamide] | 667
CC(C)(C)C1CCC(N(Cc2ccc(C(=O)NCCC(=O)O)cc2)C(=O)Oc2ccc(Br)cc2Br)CC1 (stereo not drawn) [Example 404, 3-(4-{[(4-tert-Butylcyclohexyl)-(2,4-dibromophenoxycarbonyl)amino]methyl}benzoylamino)propionic acid] | 346
N#Cc1ccc(NC(=O)N(Cc2ccc(C(=O)Nc3nn[nH]n3)cc2)c2ccc(C3=CCCCC3)cc2)cc1C(F)(F)F [Example 599, 4-[3-(4-Cyano-3-trifluoromethylphenyl)-1-(4-cyclohex-1-enylphenyl)ureidomethyl]-N-(2H-tetrazol-5-yl)benzamide] | 12
O=C(O)CCNC(=O)c1ccc(CN(C(=O)Nc2cc(Br)cc(C(F)(F)F)c2)[C@H]2CC[C@H](C3CCCCC3)CC2)cc1 [Example 393, 3-{4-[1-(trans-4-Cyclohexylcyclohexyl)-3-(3-bromo-5-trifluoromethylphenyl)ureidomethyl]benzoylamino}propionic acid] | 17
O=C(Nc1nn[nH]n1)c1ccc(CN(C(=O)c2ccc(C3CCCCC3)cc2)c2ccc(C3CCCCC3)cc2)cc1 [Example 484, 4-{[(4-Cyclohexylphenyl)-(4-cyclohexylbenzoyl)amino]methyl}-N-(2H-tetrazol-5-yl)benzamide] | 505
CC(NC(=O)N(Cc1ccc(C(=O)Nc2nn[nH]n2)cc1)c1ccc(C2CCCCC2)cc1)c1ccc(Cl)cc1 (single isomer, unassigned) [Example 337, 4-[3-[1-(4-Chlorophenyl)ethyl]-1-(4-Cyclohexylphenyl)ureidomethyl]-N-(2H-tetrazol-5-yl)benzamide] | 22
CSc1ccc(OC(=O)N(Cc2ccc(C(=O)NCCC(=O)O)cc2)c2ccc(C3CCCCC3)cc2)cc1 [Example 418, 3-(4-{[(4-Cyclohexylphenyl)-(4-methylsulfanylphenoxycarbonyl)amino]methyl}benzoylamino)propionic acid] | 472
O=C(Nc1nn[nH]n1)c1ccc(CN(C(=O)Cc2cccc(OC(F)(F)F)c2)c2ccc(C3CCCCC3)cc2)cc1 [Example 492, 4-({(4-Cyclohexylphenyl)-[2-(3-trifluoromethoxyphenyl)acetyl]amino}methyl)-N-(2H-tetrazol-5-yl)benzamide] | 144

Compound | IC50 [nM]
O=C(O)CCNC(=O)c1ccc(CN(Cc2cc(Cl)cc(Cl)c2)NC(=O)c2ccc(OC(F)(F)F)cc2)cc1 [Example 422, 3-{4-[N-(3,5-Dichlorobenzyl)-N′-(4-trifluoromethoxybenzoyl)hydrazinomethyl]benzoylamino}propionic acid] | 536
CC(C)Cc1ccc(C(=O)N(Cc2ccc(C(=O)Nc3nn[nH]n3)cc2)c2ccc(C3CCCCC3)cc2)cc1 [Example 507, 4-{[(4-Cyclohexylphenyl)-(4-isobutylbenzoyl)amino]methyl}-N-(2H-tetrazol-5-yl)benzamide] | 444
O=C(Nc1nn[nH]n1)c1ccc(CN(C(=O)Nc2ccccc2)c2ccc(C3CCCCC3)cc2)cc1 [Example 279, 4-[1-(4-Cyclohexylphenyl)-3-phenylureidomethyl]-N-(2H-tetrazol-5-yl)benzamide] | 84
CC(C)c1ccc(CN(Cc2ccc(C(=O)NCCC(=O)O)cc2)C(=O)Nc2ccc(OC(F)(F)F)cc2)cc1 [Example 433, 3-{4-[1-(4-Isopropylbenzyl)-3-(4-trifluoromethoxyphenyl)ureidomethyl]benzoylamino}propionic acid] | 1250
O=C(O)CCNC(=O)c1ccc(CN(C(=O)Oc2ccccc2[N+](=O)[O-])c2ccc(C3CCCCC3)cc2)cc1 [Example 415, 3-(4-{[(4-Cyclohexylphenyl)-(2-nitrophenoxycarbonyl)amino]methyl}benzoylamino)propionic acid] | 2420
CSc1cccc(NC(=O)N(Cc2ccc(C(=O)Nc3nn[nH]n3)cc2)c2ccc(N3CCCCC3)cc2)c1 [Example 317, 4-[3-(3-Methylsulfanylphenyl)-1-(4-piperidin-1-ylphenyl)ureidomethyl]-N-(2H-tetrazol-5-yl)benzamide] | 788
O=C(O)CCNC(=O)c1ccc(CN(CC(c2ccccc2)c2ccccc2)C(=O)c2cc3cc(Cl)ccc3o2)cc1 [Example 563, 3-(4-{[(5-Chlorobenzofuran-2-carbonyl)-(2,2-diphenylethyl)amino]methyl}benzoylamino)propionic acid] | 407
COc1ccc(NC(=O)N(Cc2ccc(C(=O)Nc3nn[nH]n3)cc2)c2ccc(C(C)(C)C)cc2)cc1S(C)(=O)=O [Example 339, 4-[1-(4-tert-Butylphenyl)-3-(3-methylsulfonyl-4-methoxyphenyl)ureidomethyl]-N-(2H-tetrazol-5-yl)benzamide] | 797
CS(=O)(=O)Cc1cccc(NC(=O)N(Cc2ccc(C(=O)Nc3nn[nH]n3)cc2)c2ccc(C3CCCCC3)cc2)c1 [Example 369, 4-[1-(4-Cyclohexylphenyl)-3-(3-methylsulfonylmethylphenyl)ureidomethyl]-N-(2H-tetrazol-5-yl)benzamide] | 558
CCCCOc1ccc(NC(=O)N(Cc2ccc(C(=O)NCCC(=O)O)cc2)C2CCC(C(C)(C)C)CC2)cc1 (stereo not drawn) [Example 69, 3-{4-[3-(4-Butoxyphenyl)-1-(4-tert-butyl-cyclohexyl)ureidomethyl]benzoylamino}propionic acid] | 90
O=C(O)CCNC(=O)c1ccc(CN(C(=O)Nc2ccc(OC(F)(F)F)cc2)[C@H]2CC[C@H](c3ccccc3)CC2)cc1 [Example 81, 3-{4-[1-(4-trans-Phenylcyclohexane)-3-(4-trifluoromethoxyphenyl)ureidomethyl]benzoylamino}propionic acid] | 143
N#Cc1cc(NC(=O)N(Cc2ccc(C(=O)Nc3nn[nH]n3)cc2)c2ccc(C3CCCCC3)cc2)cc(C(F)(F)F)c1 [Example 359, 4-[3-(3-Cyano-5-trifluoromethylphenyl)-1-(4-cyclohexylphenyl)ureidomethyl]-N-(2H-tetrazol-5-yl)benzamide] | 16
CCCCN1C(=O)c2ccc(NC(=O)N(Cc3ccc(C(=O)Nc4nn[nH]n4)cc3)C3CCC(C(C)(C)C)CC3)cc2C1=O (stereo not drawn) [Example 633, 4-[1-(4-tert-Butylcyclohexyl)-3-(N′-butylphthalimid-4-yl)ureidomethyl]-N-(2H-tetrazol-5-yl)benzamide] | 19
O=C(Nc1nn[nH]n1)c1ccc(CN(C(=O)Nc2cccc(C(F)(F)F)c2)c2ccc(C3CCCCC3)cc2)cc1 [Example 567, 4-[1-(4-Cyclohexylphenyl)-3-(3-trifluoromethylphenyl)ureidomethyl]-N-(2H-tetrazol-5-yl)benzamide] | 5
CC(C)(C)C1CCC(N(Cc2ccc(C(=O)NCCC(=O)O)cc2)C(=O)Nc2ccc(-c3ccc(C#N)cc3)cc2)CC1 (stereo not drawn) [Example 68, 3-{4-[1-(4-tert-Butylcyclohexyl)-3-(4′-cyanobiphenyl-4-yl)ureidomethyl]benzoylamino}propionic acid] | 552
O=C(Nc1nn[nH]n1)c1ccc(CN(C(=O)NCc2ccccc2Br)c2ccc(C3CCCCC3)cc2)cc1 [Example 345, 4-[3-(2-Bromobenzyl)-1-(4-cyclohexylphenyl)ureidomethyl]-N-(2H-tetrazol-5-yl)benzamide] | 64

Same assay, conditions: Glu Bd Assay (III) IC50 (nM), BHK cell membranes, WGA SPA beads, 125I-glucagon

Compound | IC50 [nM]
CC(C)(C)C1CCC(N(Cc2ccc(C(=O)NCCC(=O)O)cc2)C(=O)Nc2ccc(C#N)cc2)CC1 (stereo not drawn) [Example 99, 3-{4-[1-(4-tert-Butylcyclohexyl)-3-(4-cyanophenyl)ureidomethyl]benzoylamino}propionic acid] | 1050

From patent publication US6875760B2 (Novo Nordisk A/S, priority 1999, dated 2005)
